Reference: patent publication US20220226484A1, “THERAPEUTIC PEPTIDES” (COHBAR, INC., priority 2019, published 2022)
Positions of bridges follow the written chain, without caps; N, C: chain ends. Non-standard residues stand in square brackets, D forms with d. Primed or numbered codes have the meaning given here. Chains are numbered I, II in the order given. No end group written: not given here. PEG12′ = not defined here

Columns and labels:
[1] = system: C2C12 Mouse Myoblasts; assay: Glucose utilization; type: cell-based; conditions: peptide 10 μM, 18-22 hours, relative to 0.1% DMSO treated control
Experimental: The effect of the peptides on glucose metabolism can be assessed using an assay of glucose utilization in cultured cultured cells such as mouse myoblasts. Peptides were initially prepared as 10 mM stock in DMSO and used at a final concentration of 10 μM (0.1% DMSO). C2C12 mouse myoblast cell line was purchased from American Type Culture Collection (Manassas, Va.). C2C12 cultures were maintained at 37° C. in a humidified atmosphere of 5% CO2/95% air with medium changes every second day. C2C12 cells were grown in DMEM (1 g/L glucose) supplemented with 10% FBS with 100 IU/ml penicillin and 100 μg/ml streptomycin. C2C12 cells were seeded at 7,000 cells per well on 96-well plates and cultured to confluence. Once the cell reached confluence the media was changed to DMEM (1 g/L glucose) supplemented with 2% HS with 100 IU/ml penicillin and 100 μg/ml streptomycin and maintained at 37° C. in a humidified atmosphere of 5% CO2/95% air. 5 days post-induction of differentiation fresh DMEM (1 g/L glucose) supplemented with 2% HS with 100 IU/ml penicillin and 100 μg/ml streptomycin was added to cultures. Cells were maintained at 37° C. in a humidified atmosphere of 5% CO2 and 95% air for 5 hours. After 5 hours test peptides at 10 μM or controls (0.5 mM or 1 mM metformin in 1% DMSO) prepared in fresh differentiation medium were added to cells and the cultures were maintained at 37° C. in a humidified atmosphere of 5% CO2/95% air for 18-22 hours. At the end of the incubation culture media was removed from the cells and the remaining glucose concentration was measured using a Glucose Assay kit (Abcam) according to the manufacturer's instructions, using a Cytation 3 plate reader at 570 nm (BioTek, Winooski, Vt.). Glucose concentrations in the medium were calculated relative to 0.1% DMSO treated control cells. The relative standard deviation of the result for the 0.1% DMSO treated control was <20%. Metformin was used as a positive control for reduction of glucose levels (increased glucose utilization glucose levels for treatment with metformin (1 mM) treatment were <20% of the 0.1% DMSO treated control value. The results are reported in Table 7.

[2] = system: SH-SY5Y Neuroblastoma Cells Exposed to Staurosporine; assay: ATP levels in cells exposed to staurosporine; type: cell-based, human; conditions: peptide 10 μM with staurosporine, 18-20 hours; <100% cytoprotective, >100% synergistic
Experimental: Peptides were initially prepared as 10 mM stock in DMSO and tested at a final concentration of 10 μM (0.1% DMSO). […] […] CellTiter-Glo® Assay kit was purchased from Promega. SH-SY5Y human neuroblastoma cell line was purchased from American Type Culture Collection (Manassas, Va.) and licensed from Memorial Sloan-Kettering Cancer Center (New York, N.Y.). SH-SY5Y cells were grown in DMEM/F12 medium supplemented with 10% FBS with 100 IU/ml penicillin and 100 μg/ml streptomycin. Cultures were maintained at 37° C. in a humidified atmosphere of 5% CO2/95% air. SH-SY5Y cells were seeded at 30,000 cells per well on 96-well plates. […] ATP levels were determined using a CellTiter-Glo Assay kit (Promega) according to the manufacturer's instructions. Luminescence for each sample well on the plate was measured using a Cytation 3 plate reader (BioTek, Winooski, Vt.). […] A value less than 100% is indicative of a cytoprotective effect, while a value greater than 100% is indicative of a synergistic effect on viability.

[3] = system: WI-38 cells (human fetal lung fibroblast cells); assay: Fibroblast-to-myofibroblast transition assay, pro-collagen I alpha 1 expression; type: cell-based; conditions: 10 μM peptide and 5 ng/ml TGF-β, 48 h, cell lysates
Experimental: The effect of the peptides on fibrosis can be assessed in vitro using a fibroblast-to-myofibroblast transition (FMT) assay and monitoring pro-collagen I alpha 1 expression produced by cultured cells such as human fetal lung fibroblast cells. Peptides were initially prepared as 10 mM stock solutions in DMSO or 1 mM stock in H2O and were used at a final concentration of 10 μM (0-0.1% DMSO). Transforming Growth Factor beta (TGF-β) was used as a potent inducer of FMT as measured by increased pro-collagen I alpha 1 expression. Human WI-38 cell line was purchased from American Type Culture Collection (Manassas, Va.). WI-38 cells were seeded in complete medium (DMEM/high glucose (4 g/L)+10% Fetal Bovine Serum+1% penicillin/streptomycin) at 40,000 cells/well on 48-well plates and placed at 37° C. in a humidified atmosphere of 5% CO2/95% air. The next day, the medium was removed, cells were rinsed twice with HBSS, and the medium replaced with Serum Restricted Medium (DMEM/high glucose (4 g/L)+0.2% Fetal Bovine Serum+1% penicillin/streptomycin). The cultures were placed at 37° C. in a humidified atmosphere of 5% CO2/95% air overnight. Following 24 h in Serum Restricted Medium, the medium was removed, and the following was added: fresh Serum Restricted Medium alone (no TGF-β control); fresh Serum Restricted Medium containing 5 ng/ml TGF-β (TGF-β control); or fresh Serum Restricted Medium containing 10 μM peptide and 5 ng/ml TGF-β. Cells were incubated for 48 h at 37° C. in a humidified atmosphere of 5% CO2/95% air, washed twice with cold HBSS and immediately lysed. Lysis and determination of pro-collagen I alpha 1 concentrations in the cell lysates were performed using a Pro-Collagen I Alpha 1 ELISA kit (Abcam; Cambridge, Mass.) according to the manufacturer's instructions; absorbance was measured using a Cytation 3 plate reader at 450 nm (BioTek, Winooski, Vt.).

Row | Substance | Glucose Utilization (glucose in medium), Percent of Untreated Control [1] [%] | Percent of ATP Reduction Induced by Control [2] [%] | Procollagen I Alpha 1 Mean (SEM) [3]
1 | MRVIRMCLGVGLLGDLAG [SEQ ID NO: 2] | 110.9 | 104.8 | 
2 | RVIRMCLGVGLLGDL(dA)G (RVIRMCLGVGLLGDL[dA]G) [SEQ ID NO: 4] | 107.3 | 104.1 | 
3 | RVIRMCLGVGLLGDLAG [SEQ ID NO: 3] | 108.0 | 108.4 | 
4 | RVIRMCLGVGLLGDLAGK{PEG12} (chain 1 RVIRMCLGVGLLGDLAGK(PEG12′); chain 2 RVIRMCLGVGLLGDLAGK(PEG12′); disulfide I:6-II:6) [SEQ ID NO: 28] |  |  | 1830 (507) pg/mL
5 | RVIRMCLNVGLLGEL(dA)G [SEQ ID NO: 5] (RVIRMCLNVGLLGEL[dA]G) | 111.2 | 108.0 | 4200 (597) pg/mL
6 | RVIRMCLNVGNLGEL(dA)G (RVIRMCLNVGNLGEL[dA]G) [SEQ ID NO: 10] |  |  | 4460 (235) pg/mL
